“And” between values parts separate entries of the source, which are not always exact repeats. Equal values may be shown once.
Experiments:
MDA-MB231 cells = assay: MTT assay for anticancer activity, MDA-MB231 cells; assay type: cell-based, human; settings: MDA-MB231 breast cancer cells, 3-day exposure protocol
Protocol: (§1) Human breast cancer cells (MDA-MB231, MCF-7) were grown in Dulbecco's modified Eagle's medium (DMEM) supplemented with 10% fetal bovine serum (FBS) and 1% penicillin (10,000 units) with streptomycin (10 mg) in a 74 cm^2 flask and incubated until 80% confluence was obtained in a humidified environment of 5% CO2-95% air at 37° C.
(§2) Cancer cells were seeded and maintained in quadruplicate in a 96-well tissue culture plate at 5×10^3 cells per well in 150 μl of the same medium. The cancer cells were incubated for 24 hours before the treatment. All compounds were dissolved in 50% DMSO. Therefore, DMSO was used as a negative control. Complexes 1-5 and cisplatin (positive control) at 0.01 μM, 0.05 μM, 0.1 μM, 1 μM, 5 μM, 10 μM, and 50 μM concentrations were prepared in DMEM. The final DMSO concentration, in each well, was less than 0.1%.
(§3) The cancer cells were treated with the synthesized compounds 1-5 and cisplatin and then incubated for […]. The medium from the wells was discarded and 100 μL of DMEM containing MTT (3-(4,5-dimethylthiazol-2-yl)-2,5-diphenyltetrazolium bromide) (5 mg/mL) was added to the wells. The cells were incubated in a CO2 incubator at 37° C. in the dark for 4 h. After incubation, a purple colored formazan (an artificial chromogenic dye, a product of the reduction of water […] tetrazolium salts, such as MTT, by dehydrogenases and reductases) was produced by the cells and appeared as dark crystals in the bottom of the wells. The medium from each well was discarded carefully to avoid disruption of the monolayer. 100 μL of isopropanol was added in each well. The solution was thoroughly mixed in the wells to dissolve the formazan crystals which ultimately results into a purple solution. The absorbance of the 96-well plate was taken at 570 nm with Mithras^2LB943 against a blank (e.g. unreduced MTT in isopropanol). All data presented are mean t standard deviation.
(§4) The in vitro cytotoxic effect of mixed ligand gold(I) complexes 1-5 against MDA-MB231 and MCF-7 were studied using the MTT assay. The in vitro cytotoxic activity depends on the exposure time and the concentrations of the complexes. For that reason, different concentrations of the complexes and a 3-day exposure protocol to determine the IC50 values for all five complexes and cisplatin were used.

MCF-7 cells = assay: MTT assay for anticancer activity, MCF-7 cells; assay type: cell-based, human; settings: MCF-7 breast cancer cells, 3-day exposure protocol
Protocol: as §1, §2, §3, §4

CT-DNA = assay: Fluorescence emission titration with CT-DNA (Scatchard); assay type: binding, calf; settings: complex 1.3×10^−4 M, excitation 275 nm, Tris-HCl/NaCl buffer, mean standard deviations ±0.07
Protocol: Fluorescence experiments were carried out at a constant concentration of the complexes with increasing CT-DNA concentrations. The binding constant, K, of the gold(I) complexes was determined from Scatchard eqs. (2) and (3) by employing emission titration (Liu, D. G.; Liao, P. J.; Fang, Z. Y.; Huang, S. S.; Sheng, L. G.; Yu, Q. R. Interaction of bis(ethylene)tin(bis(salicylidene)ethylenediamine) with DNA. Anal. Sci. 2002, 18 391-395; and Healy, F. E. Quantitative determination of DNA-ligand binding using fluorescence spectroscopy. J. Chem. Educ. 2007, 84, 1304-1307, each incorporated herein by reference in their entirety). CF=CT(I/Io−P)(1−P) (2) r/CF=K(n−r) (3) where CF is the free probe (i.e. free metal complex) concentration, CT is the total concentration of the probe added, I and Io are fluorescence intensities in the presence and absence of CT-DNA, respectively, r denotes a ratio of CB (CB=CT−CF) to the DNA concentration, i.e., the bound probe concentration to the DNA concentration, K is the binding constant, “n” is the binding site number, and P is the ratio of the observed fluorescence quantum yield of the bound probe to that of the free probe. The value P was obtained as the intercept by extrapolating from a plot of I/Io vs. 1/[DNA].
The fluorescence emission titration of complexes 1-5 was carried out in order to understand the nature of binding mode of these complexes with CT-DNA. This method is highly sensitive, reproducible, and accurate. In the absence of CT-DNA, all complexes 1-5 (concentration=1.3×10^−4 M) emitted strong luminescence when excited at 275 nm in Tris-HCl/NaCl buffer with an emission maximum appearing at 340 nm. However, the subsequent addition of CT-DNA from 0.067-0.5×10^−4 M caused a gradual enhancement in the fluorescence intensity of the complexes with no apparent change in the shape and position of the emission bands (FIGS. 10A-10E), which is indicative of a strong interaction of the Au(I) drug entities with CT DNA. The hydrophobic molecular structure of CT DNA could be responsible for enhancing the fluorescence quantum yield of complexes, leading to the higher fluorescence intensity with increasing concentration of CT DNA. In addition, energy transfer from CT-DNA to metal complexes could also induce fluorescence enhancement (Arjmand, F.; Jamsheera, A.; Afzal, M.; S. Tabassum, S. Enantiomeric Specificity of Biologically Significant Cu(II) and Zn(II) Chromone Complexes Towards DNA. Chirality. 2012, 24, 977-986, Tabassum, S.; Yadav, S.; Arjmand, F. Synthesis and mechanistic insight of glycosylated Cu^II/Ni^II—Sn2^IV heterobimetallic DNA binding agents: Validation of a specific Cu^II—Sn2^IV chemotherapeutic agent for human leukemic cell line K-562. J. Organomet. Chem. 2013, 745-746, 226-234, incorporated herein by reference in its entirety).

[1] = system: EB-DNA system (CT DNA treated with EB); assay: Ethidium bromide displacement fluorescence quenching (Stern-Volmer); assay type: binding, calf; settings: EB-bound CT DNA, emission at 585-590 nm
Protocol: Luminescence titrations involving quenching experiments were conducted by adding increasing concentration of the complexes to a fixed concentration of EB-DNA system. The Tris-HCl buffer was used as a blank to make preliminary adjustments. The Stern-Volmer quenching constant, Ksv was obtained from the following equation (Lakowiez, R. J.; Webber, G. Quenching of fluorescence by oxygen. Probe for structural fluctuations in macromolecules. Biochem. 1973, 12, 4161-4170, incorporated herein by reference in its entirety). I0/I=1+KSV·r (4) where r is the ratio of total concentration of complex to that of DNA, and Io and I are the fluorescence intensities of EB in the absence and presence of complex.
A reliable method for studying the binding of molecules to nucleic acids is the fluorescence quenching method. Ethidium bromide (EB) is a planar cationic dye which is widely used as a sensitive fluorescence probe for native DNA. EB emits intense fluorescent light in the presence of DNA due to its strong intercalation between the adjacent DNA base pairs. The displacement technique is based on the decrease of fluorescence resulting from the displacement of EB from a DNA sequence by a quencher, and the quenching is due to the reduction of the number of binding sites on the DNA that are available to the EB (Ramachandran. E.; Raja, S. D.; Bhuvanesh, P. S. N.; Natarajan, K. Mixed ligand palladium(II) complexes of 6-methoxy-2-oxo-1,2-dihydroquinoline-3-carbaldehyde 4N-substituted thiosemicarbazones with triphenylphosphine co-ligand: Synthesis, crystal structure and biological properties. Dalton Trans. 2012, 41 13308-13323, incorporated herein by reference in its entirety). […] From the above data, it is clear that 4 replaces EB more effectively than other complexes, and this observation agreed with the results obtained from electronic absorption studies.

## CCN(CC)C(=S)[S][Au-][P+](C)(C)C [Complex 3, (Me)3PAu(S2CN{Et}2)]
MDA-MB231 cells
  IC50: 0.043 µM
MCF-7 cells
  IC50: 0.0088 µM
CT-DNA
  Scatchard binding constant K: 57000 M⁻¹
[1]
  Stern-Volmer quenching constant KSV: 0.67

## CC(C)[P+]([Au-][S]C(=S)N(C)C)(C(C)C)C(C)C [Complex 5, (i-Pr)3PAu(S2CN{Me}2)]
MDA-MB231 cells
  IC50: 0.7 µM
MCF-7 cells
  IC50: 0.0078 µM and 0.0079 µM
CT-DNA
  Scatchard binding constant K: 19000 M⁻¹
[1]
  Stern-Volmer quenching constant KSV: 0.10

## CCN(CC)C(=S)[S][Au-][P+](CC)(CC)CC [Complex 4, (Et)3PAu(S2CN{Et}2)]
MDA-MB231 cells
  IC50: 0.044 µM
MCF-7 cells
  IC50: 0.0053 µM
CT-DNA
  Scatchard binding constant K: 66000 M⁻¹
[1]
  Stern-Volmer quenching constant KSV: 0.91

## CN(C)C(=S)[S][Au-][P+](C)(C)C [Complex 1, (Me)3PAu(S2CN{Me}2)]
MDA-MB231 cells
  IC50: 0.044 µM
MCF-7 cells
  IC50: 0.0078 µM
CT-DNA
  Scatchard binding constant K: 28000 M⁻¹
[1]
  Stern-Volmer quenching constant KSV: 0.19

## N.N.[Cl][Pt][Cl] [Cisplatin, reference compound]
MDA-MB231 cells
  IC50: 25.8 µM
MCF-7 cells
  IC50: 0.0059 µM

## CC[P+](CC)(CC)[Au-][S]C(=S)N(C)C [Complex 2, (Et)3PAu(S2CN{Me}2)]
MDA-MB231 cells
  IC50: 0.055 µM
MCF-7 cells
  IC50: 0.0064 µM
CT-DNA
  Scatchard binding constant K: 35000 M⁻¹
[1]
  Stern-Volmer quenching constant KSV: 0.34

Reference: US10273257B2, “Cancer cell-containing composition” (KING FAHD UNIVERSITY OF PETROLEUM AND MINERALS, priority 2016, dated 2019)
